Entries after “also recorded” stand apart in the source; their conditions may differ. Read-outs that look alike come from different tables or passages of the source.
How the values were obtained:
porcine kidney trehalase [1] = biological target: T1, porcine kidney trehalase (Sus scrofa, UniProt I3LIR5); settings: mean ± SE, cited from earlier work
T1 construct: trehalases from porcine kidney and insects have different recognition requirements; from tissue; host or cells: porcine kidney
T1 sequence (I3LIR5 24-583): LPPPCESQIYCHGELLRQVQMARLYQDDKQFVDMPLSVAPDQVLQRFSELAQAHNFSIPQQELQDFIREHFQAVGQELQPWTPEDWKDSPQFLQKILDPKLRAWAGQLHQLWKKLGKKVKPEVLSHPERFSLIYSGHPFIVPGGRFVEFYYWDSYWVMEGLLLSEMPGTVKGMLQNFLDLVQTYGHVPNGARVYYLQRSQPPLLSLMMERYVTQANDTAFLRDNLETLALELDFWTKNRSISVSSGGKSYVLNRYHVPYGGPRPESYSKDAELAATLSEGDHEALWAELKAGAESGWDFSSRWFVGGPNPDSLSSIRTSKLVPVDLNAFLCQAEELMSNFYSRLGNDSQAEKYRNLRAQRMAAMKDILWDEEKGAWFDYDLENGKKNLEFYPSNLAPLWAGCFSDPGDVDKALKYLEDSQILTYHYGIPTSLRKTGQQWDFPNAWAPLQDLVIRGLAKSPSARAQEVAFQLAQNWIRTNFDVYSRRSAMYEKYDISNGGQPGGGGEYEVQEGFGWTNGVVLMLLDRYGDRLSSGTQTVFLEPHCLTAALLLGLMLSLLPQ

C. riparius trehalase = C. riparius trehalase (Chironomus riparius, UniProt J7EJ73); assay: Trehalase inhibition, coupled assay with glucose-6-phosphate dehydrogenase and hexokinase (insect enzyme); format: biochemical; settings: for selectivity between insect and porcine trehalase (times more active): C. riparius trehalase versus porcine kidney trehalase, from IC50 values; for inhibitory activity against insect trehalase (in words): screening at fixed concentration of 1 mM; for IC50 C. riparius trehalase: trehalose fixed close to Km (0.5 mM), 30 °C, mean ± SE of three independent experiments
Procedure: (§1) Trehalase activity was measured through a coupled assay with glucose-6-phosphate dehydrogenase and hexokinase according to Wegener et al.. To examine the potential of each compound as a trehalase inhibitor, screening assays of potential inhibitors were carried out at a fixed concentration of 1 mM. […] Initial rates as a function of inhibitor concentration were fitted to the following equation: […]
(§2) where νi and ν are the initial rate in the presence and in the absence of the inhibitor, respectively, [I] is the inhibitor concentration, IC50 is the inhibitor concentration producing half-maximal inhibition, and n is the Hill coefficient.
(§3) All enzyme assays were performed in triplicate at 30 °C by using sample volumes varying from 5 to 20 µL in 1 mL test tubes and using a Cary3 UV–vis spectrophotometer. Enzyme activities were analyzed by Cary Win UV application software for Windows XP. The specific activity (U mg^−1) was expressed as µmol min^−1(mg protein)^−1. Values were expressed as mean ± SE of replicated.

porcine kidney trehalase [2] = biological target: T1, porcine kidney trehalase; assay: Trehalase inhibition, coupled assay with glucose-6-phosphate dehydrogenase and hexokinase (porcine enzyme); format: biochemical; settings: for inhibitory activity against porcine trehalase (in words): screening at fixed concentration of 1 mM; for IC50 porcine kidney trehalase / IC50: trehalose fixed close to Km (2.5 mM), 30 °C, mean ± SE of three independent experiments
Procedure: Synthesized compounds 10, 12–14, 16, 17 and 19–21 were tested for their inhibitory activity against insect (C. riparius) and porcine kidney trehalase.
as §1, with “Even if the synthesis unexpectedly afforded a structurally quite heterogeneous set of compounds, biological data give some hints toward the design of selective inhibitors of trehalases of different origin. Trehalase” for “Trehalase”
as §2, §3

Sequence of C. riparius trehalase (J7EJ73 entry or part of it): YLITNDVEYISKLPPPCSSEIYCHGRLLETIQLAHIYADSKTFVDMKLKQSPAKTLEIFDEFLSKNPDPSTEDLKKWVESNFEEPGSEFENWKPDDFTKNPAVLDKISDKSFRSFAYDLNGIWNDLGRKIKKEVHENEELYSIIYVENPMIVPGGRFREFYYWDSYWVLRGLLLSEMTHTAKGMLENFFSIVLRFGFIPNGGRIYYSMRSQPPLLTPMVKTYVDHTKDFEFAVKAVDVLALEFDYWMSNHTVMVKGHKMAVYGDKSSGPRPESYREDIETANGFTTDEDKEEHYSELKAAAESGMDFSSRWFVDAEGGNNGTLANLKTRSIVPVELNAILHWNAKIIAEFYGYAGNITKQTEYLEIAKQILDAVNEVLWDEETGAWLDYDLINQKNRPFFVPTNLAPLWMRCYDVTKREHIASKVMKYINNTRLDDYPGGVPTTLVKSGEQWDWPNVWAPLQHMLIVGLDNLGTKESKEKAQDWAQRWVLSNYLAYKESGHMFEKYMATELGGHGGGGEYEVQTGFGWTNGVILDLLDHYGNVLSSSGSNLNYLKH

inhibitory activity against insect trehalase (in words) (C. riparius trehalase) | inhibitory activity against porcine trehalase (in words) (porcine kidney trehalase [2]) | IC50 porcine kidney trehalase (porcine kidney trehalase [2]) | SMILES | selectivity between insect and porcine trehalase (times more active) (C. riparius trehalase) | other results
 |  |  | OC[C@H]1NC[C@H](O)[C@@H](O)[C@@H]1O [Compound 7, 1-deoxynojirimycin, reference compound] | only twice as active on insect trehalase | IC50 (porcine kidney trehalase [1]): 5.96 ± 0.62 µM
 |  |  | CC[C@@H]1[C@H](O)[C@@H](O)[C@H](O)[C@@H](CO)N1C(=O)NCc1ccccc1 [Compound 8] |  | IC50 (porcine kidney trehalase [1]; trehalose fixed at Km): 100 ± 8.82 µM
 |  |  | OC[C@H]1NC[C@@H](O)[C@@H]1O [Compound 9, DAB-1, reference compound] | twice more active on porcine trehalase | IC50 (porcine kidney trehalase [1]; trehalose fixed at Km): 10.6 ± 2.42 µM
inhibitors only of insect trehalase | no activity | no inhibition | CCC[C@@H]1[C@H](O)[C@@H](O)[C@H](O)[C@@H](CO)N1C(=O)NCc1ccccc1 [Compound 10] |  | 
 | active |  | NC(=O)N1C[C@H](O)[C@@H](O)[C@H](O)[C@H]1CO [Compound 12] | five times | IC50 (porcine kidney trehalase [2]): 154 ± 17 µM
 | active |  | CCC[C@H]1N[C@H](CO)[C@@H](O)[C@H](O)[C@H]1O [Compound 13] | around ten times more active towards insect trehalase; also recorded: ten-fold selectivity towards insect trehalase | IC50 (porcine kidney trehalase [2]): 109 ± 38 µM
inhibitors only of insect trehalase | no activity | no inhibition | CCC[C@H]1N[C@H](CO)[C@@H](O)[C@@H]1O [Compound 14] |  | 
inhibitors only of insect trehalase | no activity | no inhibition | CCC[C@@H]1[C@@H](O)[C@H](O)[C@@H](CO)N1C(N)=O [Compound 16] |  | 
do not possess any activity | do not possess any activity | no inhibition | CCC[C@@H]1N[C@H](CO)[C@@H](O)[C@H]1O [Compound 17] |  | IC50 C. riparius trehalase (C. riparius trehalase): no inhibition
do not possess any activity | do not possess any activity | no inhibition | CCC[C@H]1[C@H](O)[C@H](O)[C@@H](CO)N1C(N)=O [Compound 19] |  | IC50 C. riparius trehalase (C. riparius trehalase): no inhibition
 | active |  | CCCCCCCCN1C[C@@H](O)[C@H](O)[C@H]1CO [Compound 20] |  | IC50 (porcine kidney trehalase [2]): 537 ± 80 µM
 |  | no inhibition | CCCCCCCC[C@H]1N[C@H](CO)[C@@H](O)[C@@H]1O [Compound 21] |  | IC50 C. riparius trehalase (C. riparius trehalase): no inhibition
